# “And” between values parts separate entries of the source, which are not always exact repeats. Identical values can stand only once. Inconclusive results and toxic doses are left out.
# Test system: CD2F1 mice, L1210 leukemia ip, survival T/C
# Assay: NCI In Vivo Anticancer Drug Screen. Data for tumor model L1210 Leukemia (intraperitoneal) in CD2F1 (CDF1) mice
# Conditions: higher = longer survival
# Procedure, shortened: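 In this screen, transplantable tumors were grown in mice given either the compound or its vehicle. Results were expressed as the treated measurement relative to the control measurement.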
# [1] = endpoint: mean survival time, dose: 75.0 mg/kg/injection, schedule: Q01DX001 (ip), vehicle: saline
# [2] = endpoint: mean survival time, dose: 150.0 mg/kg/injection, schedule: Q01DX001 (ip), vehicle: saline
# [3] = endpoint: mean survival time, dose: 100.0 mg/kg/injection, schedule: Q04DX003 (ip), vehicle: saline with Tween-80
# [4] = endpoint: mean survival time, dose: 200.0 mg/kg/injection, schedule: Q04DX003 (ip), vehicle: saline with Tween-80
# [5] = endpoint: mean survival time, dose: 400.0 mg/kg/injection, schedule: Q04DX003 (ip), vehicle: saline with Tween-80
# [6] = endpoint: mean survival time, dose: 100.0 mg/kg/injection, schedule: Q04DX003 (ip), vehicle: water
# [7] = endpoint: mean survival time, dose: 100.0 mg/kg/injection, schedule: Q04DX003 (ip), vehicle: other
# [8] = endpoint: mean survival time, dose: 200.0 mg/kg/injection, schedule: Q04DX003 (ip), vehicle: other
# [9] = endpoint: mean survival time, dose: 400.0 mg/kg/injection, schedule: Q04DX003 (ip), vehicle: other
# [10] = endpoint: mean survival time, dose: 400.0 mg/kg/injection, schedule: Q01DX009 (ip), vehicle: saline with Tween-80
structure (smiles),measurement,setting,value
CN1CCc2c3n(c4ccccc24)C(=O)CCC31 (configuration not stated),T/C,"endpoint: mean survival time, dose: 6.25 mg/kg/injection, schedule: Q04DX003 (ip), vehicle: saline sonified",101 % of control
same,T/C,"endpoint: mean survival time, dose: 12.5 mg/kg/injection, schedule: Q04DX003 (ip), vehicle: saline sonified",90 % of control
same,T/C,"endpoint: mean survival time, dose: 25.0 mg/kg/injection, schedule: Q04DX003 (ip), vehicle: saline sonified",97 % of control
NNc1nc(=O)[nH]nc1SCc1ccccc1,T/C,[1],96 % of control
same,T/C,[2],88 % of control
Cc1c2ccccc2c(CN2CC(O)CC2C(=O)O)c2ccccc12 (configuration not stated),T/C,[3],94 % of control
same,T/C,[4],93 % of control
same,T/C,[5],87 % of control
O=NN(CCCl)C(=O)NCc1ccc[n+]([O-])c1,T/C,"endpoint: mean survival time, dose: 6.25 mg/kg/injection, schedule: Q01DX001 (ip), vehicle: water",152 % of control and 167 % of control
same,T/C,"endpoint: mean survival time, dose: 12.5 mg/kg/injection, schedule: Q01DX001 (ip), vehicle: water",274 % of control and 290 % of control
same,T/C,"endpoint: mean survival time, dose: 25.0 mg/kg/injection, schedule: Q01DX001 (ip), vehicle: water",309 % of control and 324 % of control
CCCCCCNC(=O)Oc1c(C/C=C/CCC(=O)O)c(OC)c(C)c2c1C(=O)OC2,T/C,"endpoint: mean survival time, dose: 100.0 mg/kg/injection, schedule: Q04DX002 (ip), vehicle: saline with Tween-80",108 % of control
same,T/C,"endpoint: mean survival time, dose: 200.0 mg/kg/injection, schedule: Q04DX002 (ip), vehicle: saline with Tween-80",112 % of control
CN(C)CC1CCCCC1OC(=O)c1ccccc1 (configuration not stated),T/C,"endpoint: mean survival time, dose: 25.0 mg/kg/injection, schedule: Q04DX003 (ip), vehicle: saline with Tween-80",93 % of control
same,T/C,"endpoint: mean survival time, dose: 50.0 mg/kg/injection, schedule: Q04DX003 (ip), vehicle: saline with Tween-80",97 % of control
same,T/C,[3],97 % of control
same,T/C,[6],96 % of control
O=c1nc(NC2CC2)ccn1C1OC(CO)C(O)C1O (configuration not stated),T/C,"endpoint: median survival time, dose: 12.5 mg/kg/injection, schedule: Q01DX005 (ip), vehicle: water",97 % of control
same,T/C,"endpoint: median survival time, dose: 25.0 mg/kg/injection, schedule: Q01DX005 (ip), vehicle: water",106 % of control
same,T/C,"endpoint: median survival time, dose: 50.0 mg/kg/injection, schedule: Q01DX005 (ip), vehicle: water",107 % of control
same,T/C,"endpoint: median survival time, dose: 100.0 mg/kg/injection, schedule: Q01DX005 (ip), vehicle: water",107 % of control
same,T/C,"endpoint: median survival time, dose: 200.0 mg/kg/injection, schedule: Q01DX005 (ip), vehicle: water",101 % of control
O=C(O)C(O)CBr (configuration not stated),T/C,"endpoint: mean survival time, dose: 12.5 mg/kg/injection, schedule: Q04DX003 (ip), vehicle: saline",101 % of control
same,T/C,"endpoint: mean survival time, dose: 25.0 mg/kg/injection, schedule: Q04DX003 (ip), vehicle: saline",106 % of control
same,T/C,"endpoint: mean survival time, dose: 50.0 mg/kg/injection, schedule: Q04DX003 (ip), vehicle: saline",106 % of control
NC(=O)C1(C(N)=O)CCCC1,T/C,"endpoint: mean survival time, dose: 75.0 mg/kg/injection, schedule: Q04DX002 (ip), vehicle: saline with Tween-80",112 % of control
same,T/C,"endpoint: mean survival time, dose: 150.0 mg/kg/injection, schedule: Q04DX002 (ip), vehicle: saline with Tween-80",96 % of control
same,T/C,"endpoint: mean survival time, dose: 300.0 mg/kg/injection, schedule: Q04DX002 (ip), vehicle: saline with Tween-80",96 % of control
O=c1[nH]cc(Cl)cc1Cl,T/C,[7],91 % of control
same,T/C,[8],103 % of control
same,T/C,[9],105 % of control
C=CN1CCCC1=O (tested in a mixture with another compound),T/C,[3],95 % of control
same,T/C,[4],91 % of control
same,T/C,[5],98 % of control
NCC1CCNCC1,T/C,"endpoint: mean survival time, dose: 25.0 mg/kg/injection, schedule: Q04DX002 (ip), vehicle: saline",94 % of control
same,T/C,"endpoint: mean survival time, dose: 50.0 mg/kg/injection, schedule: Q04DX002 (ip), vehicle: saline",97 % of control
same,T/C,"endpoint: mean survival time, dose: 100.0 mg/kg/injection, schedule: Q04DX002 (ip), vehicle: saline",91 % of control
same,T/C,"endpoint: mean survival time, dose: 200.0 mg/kg/injection, schedule: Q04DX002 (ip), vehicle: saline",102 % of control
CC(=O)OCC1OC(n2nc(C#N)c(C#N)n2)C(OC(C)=O)C1OC(C)=O (configuration not stated),T/C,"endpoint: mean survival time, dose: 12.5 mg/kg/injection, schedule: Q01DX005 (ip), vehicle: distilled water + Tween-80",106 % of control
same,T/C,"endpoint: mean survival time, dose: 25.0 mg/kg/injection, schedule: Q01DX005 (ip), vehicle: distilled water + Tween-80",101 % of control and 106 % of control
same,T/C,"endpoint: mean survival time, dose: 50.0 mg/kg/injection, schedule: Q01DX005 (ip), vehicle: distilled water + Tween-80",98 % of control and 112 % of control
same,T/C,"endpoint: mean survival time, dose: 100.0 mg/kg/injection, schedule: Q01DX005 (ip), vehicle: distilled water + Tween-80",115 % of control and 104 % of control
same,T/C,"endpoint: mean survival time, dose: 200.0 mg/kg/injection, schedule: Q01DX005 (ip), vehicle: distilled water + Tween-80",121 % of control and 104 % of control
same,T/C,"endpoint: mean survival time, dose: 400.0 mg/kg/injection, schedule: Q01DX005 (ip), vehicle: distilled water + Tween-80",106 % of control
CCOC(=O)c1cc2c(=O)cccnc2o1,T/C,[1],93 % of control
same,T/C,[2],96 % of control
same,T/C,"endpoint: mean survival time, dose: 300.0 mg/kg/injection, schedule: Q01DX001 (ip), vehicle: saline",96 % of control
O=S(=O)(Nc1ccc2c3c(cccc13)CC2)c1ccccc1,T/C,[3],96 % of control
same,T/C,[4],96 % of control
same,T/C,[5],98 % of control
OCCN(CCO)N=Nc1c(F)cc(F)cc1F,T/C,"endpoint: mean survival time, dose: 25.0 mg/kg/injection, schedule: Q01DX005 (ip), vehicle: other",98 % of control
same,T/C,"endpoint: mean survival time, dose: 25.0 mg/kg/injection, schedule: Q04DX003 (ip), vehicle: water",94 % of control
same,T/C,"endpoint: mean survival time, dose: 50.0 mg/kg/injection, schedule: Q01DX005 (ip), vehicle: other",101 % of control
same,T/C,"endpoint: mean survival time, dose: 50.0 mg/kg/injection, schedule: Q04DX003 (ip), vehicle: water",94 % of control
same,T/C,"endpoint: mean survival time, dose: 100.0 mg/kg/injection, schedule: Q01DX005 (ip), vehicle: other",101 % of control
same,T/C,[6],97 % of control
same,T/C,"endpoint: mean survival time, dose: 200.0 mg/kg/injection, schedule: Q01DX005 (ip), vehicle: other",102 % of control
same,T/C,"endpoint: mean survival time, dose: 200.0 mg/kg/injection, schedule: Q04DX003 (ip), vehicle: water",97 % of control
same,T/C,"endpoint: mean survival time, dose: 400.0 mg/kg/injection, schedule: Q01DX005 (ip), vehicle: other",112 % of control
same,T/C,"endpoint: mean survival time, dose: 400.0 mg/kg/injection, schedule: Q04DX003 (ip), vehicle: water",100 % of control
O=C1CN=C(c2ccccn2)c2cc(Cl)ccc2N1,T/C,"endpoint: mean survival time, dose: 267.0 mg/kg/injection, schedule: Q01DX009 (ip), vehicle: saline with Tween-80",92 % of control
same,T/C,[10],92 % of control
C[N+]1(C)CCC2=CC3C=CC2C1C=C3 (configuration not stated),T/C,"endpoint: median survival time, dose: 25.0 mg/kg/injection, schedule: Q04DX002 (ip), vehicle: saline with Tween-80",100 % of control
same,T/C,"endpoint: median survival time, dose: 50.0 mg/kg/injection, schedule: Q04DX002 (ip), vehicle: saline with Tween-80",100 % of control
CCCCCCCCCC(O)CCCCCCCCC,T/C,"endpoint: mean survival time, dose: 100.0 mg/kg/injection, schedule: Q01DX009 (ip), vehicle: other",102 % of control
same,T/C,[7],103 % of control
same,T/C,"endpoint: mean survival time, dose: 200.0 mg/kg/injection, schedule: Q01DX009 (ip), vehicle: other",91 % of control
same,T/C,[8],94 % of control
same,T/C,"endpoint: mean survival time, dose: 400.0 mg/kg/injection, schedule: Q01DX009 (ip), vehicle: other",91 % of control
same,T/C,[9],94 % of control
CCOC(=O)NC12c3ccccc3C(c3ccccc31)C(C(=O)O)C2C(=O)O (configuration not stated),T/C,"endpoint: mean survival time, dose: 100.0 mg/kg/injection, schedule: Q01DX009 (ip), vehicle: saline with Tween-80",90 % of control
same,T/C,"endpoint: mean survival time, dose: 200.0 mg/kg/injection, schedule: Q01DX009 (ip), vehicle: saline with Tween-80",100 % of control
same,T/C,[10],103 % of control
CC(=O)N=C1C=C(NC(C)=O)C(=O)c2ncccc21,T/C,"endpoint: mean survival time, dose: 6.25 mg/kg/injection, schedule: Q04DX002 (ip), vehicle: saline with Tween-80",95 % of control
same,T/C,"endpoint: mean survival time, dose: 12.5 mg/kg/injection, schedule: Q04DX002 (ip), vehicle: saline with Tween-80",119 % of control
same,T/C,"endpoint: mean survival time, dose: 25.0 mg/kg/injection, schedule: Q04DX002 (ip), vehicle: saline with Tween-80",119 % of control
C=C(c1ccccc1)C(C)C(=O)OCC (configuration not stated),T/C,[3],103 % of control
same,T/C,[4],103 % of control
same,T/C,[5],100 % of control
COC(=O)CC(=O)NC(C)CC1CNc2ccccc21 (configuration not stated),T/C,[3],103 % of control
same,T/C,[4],103 % of control
same,T/C,[5],97 % of control
